In ChEMBL document CHEMBL4765482, “Novel Sigma 1 Receptor Antagonists as Potential Therapeutics for Pain Management” (J Med Chem, 2021):

Experiments:
[1] = Metabolic stability in human liver microsomes assessed as half-life at 10 uM incubated for 1 hr in presence of NADPH by LC-MS/MS analysis; format: ADME, Microsome
[2] = Intrinsic clearance in rat liver microsomes at 10 uM incubated for 1 hr in presence of NADPH by LC-MS/MS analysis; format: ADME, Microsome; conditions: read-out: CLH
[3] = Intrinsic clearance in human liver microsomes at 10 uM incubated for 1 hr in presence of NADPH by LC-MS/MS analysis; format: ADME, Microsome; conditions: read-out: CLH
[4] = Metabolic stability in rat liver microsomes assessed as half-life at 10 uM incubated for 1 hr in presence of NADPH by LC-MS/MS analysis; format: ADME, Microsome
[5] = Displacement of [3H]-DTG from sigma-2 receptor in guinea pig brain membrane incubated for 1 hr by liquid scintillation counting method; format: cell membranes, Cavia porcellus
[6] = target: T1, Sigma intracellular receptor 2 (Homo sapiens, UniProt Q5BJF2); assay: Displacement of [3H]-DTG from sigma-2 receptor in human Jurkat cell membrane incubated for 1 hr by liquid scintillation counting method; format: cell membranes
[7] = target: T2, Sigma non-opioid intracellular receptor 1 (Homo sapiens, UniProt Q99720); assay: Displacement of [3H]-pentazocine from sigma-1 receptor in human Jurkat cell membrane at 100 nM incubated for 2 hr by liquid scintillation counting method relative to control; format: cell membranes
[8] = target: T3, Sigma non-opioid intracellular receptor 1 (Cavia porcellus, UniProt Q60492); assay: Displacement of [3H]-(+)-pentazocine from sigma-1 receptor in guinea pig brain membranes incubated for 1 hr by liquid scintillation counting method; format: cell membranes, Membrane
[9] = target: T3, Sigma non-opioid intracellular receptor 1
[10] = target: Sigma non-opioid intracellular receptor 1 (Cavia porcellus) (UniProt Q60492); assay: Ratio of Ki for displacement of [3H]-(+)-pentazocine from sigma-1 receptor to Ki for displacement of [3H]-(+)-pentazocine from sigma-1 receptor in guinea pig brain membranes in presence of phenytoin; format: cell membranes; conditions: Membrane
[11] = target: T2, Sigma non-opioid intracellular receptor 1; assay: Displacement of [3H]-pentazocine from sigma-1 receptor in human Jurkat cell membrane incubated for 2 hr by liquid scintillation counting method; format: cell membranes
[12] = target: T1, Sigma intracellular receptor 2; assay: Displacement of [3H]-DTG from sigma-2 receptor in human Jurkat cell membrane at 1000 nM incubated for 1 hr by liquid scintillation counting method relative to control; format: cell membranes; conditions: filed as antagonist

T1 sequence (Q5BJF2 whole entry): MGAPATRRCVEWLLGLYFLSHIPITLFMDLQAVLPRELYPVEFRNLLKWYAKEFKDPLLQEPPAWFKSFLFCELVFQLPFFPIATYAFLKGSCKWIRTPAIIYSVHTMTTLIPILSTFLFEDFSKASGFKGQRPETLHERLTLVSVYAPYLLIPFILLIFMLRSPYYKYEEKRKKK
T3 sequence (Q60492 whole entry): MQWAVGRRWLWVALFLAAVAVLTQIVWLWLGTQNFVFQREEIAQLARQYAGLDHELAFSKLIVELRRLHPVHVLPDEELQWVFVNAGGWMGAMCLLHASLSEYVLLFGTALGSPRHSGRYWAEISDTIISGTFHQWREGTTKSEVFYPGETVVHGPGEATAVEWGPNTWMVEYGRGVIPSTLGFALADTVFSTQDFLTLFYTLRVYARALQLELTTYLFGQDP
T2 sequence (Q99720 whole entry): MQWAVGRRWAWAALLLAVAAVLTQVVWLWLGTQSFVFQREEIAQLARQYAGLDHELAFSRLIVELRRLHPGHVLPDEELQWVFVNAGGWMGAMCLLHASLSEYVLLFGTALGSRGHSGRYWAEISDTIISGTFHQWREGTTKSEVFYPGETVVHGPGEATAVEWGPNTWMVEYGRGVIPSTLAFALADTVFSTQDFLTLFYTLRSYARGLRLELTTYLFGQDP
Sequence of Sigma non-opioid intracellular receptor 1 (Cavia porcellus) (Q60492 whole entry): as the sequence (Q60492 whole entry) above

Compound | half-life at 10 µM [1] | microsomal CLint at 10 µM [2] | microsomal CLint at 10 µM [3] | half-life at 10 µM [4] | Ki [5] | Ki [6] | other results
Cc1ncc2n1-c1ccc(Cl)cc1C(c1ccccc1F)=NC2 [MIDAZOLAM] | 2.6 min | 293 µL/min/mg | 263 µL/min/mg | 2.4 min | – | – | –
CN1CCN(Cc2nc(-c3ccc(C(C)(C)C)cc3)n(C)n2)CC1 | – | – | – | – | > 1000 nM | – | –
Cn1nc(CN2CCN(Cc3ccccc3)CC2)nc1-c1ccc(C(C)(C)C)cc1 | – | – | – | – | 39 nM | – | –
Cn1nc(CN2CCCC2)nc1-c1ccc(C2(C(F)(F)F)CC2)cc1 | 172 min | 207 µL/min/mg | 4 µL/min/mg | 3.3 min | – | – | –
Cn1nc(CN2CCCC2)nc1-c1ccc2c(c1)CCC2 | – | – | – | – | – | 1000 nM | Activity [7]: 37%
COc1ccc2c(c1)[C@]13CCCC[C@@H]1[C@H](C2)N(C)CC3 [DEXTROMETHORPHAN] | – | – | – | – | – | – | Ki [8]: 63 nM; Ki [9]: 10 nM; Ratio Ki [10]: 6.3
Cn1nc(CN2CCC(Cc3ccccc3)CC2)nc1-c1ccc(C(C)(C)C)cc1 | – | – | – | – | 57 nM | – | –
Cn1nc(CN2CCCC2)nc1-c1ccc(Cl)c(Cl)c1 | 84.7 min | 135 µL/min/mg | 8.2 µL/min/mg | 5.1 min | – | – | –
Cn1nc(CN2CCN(c3ccccc3)CC2)nc1-c1ccc(C(C)(C)C)cc1 | 37.3 min | 29.8 µL/min/mg | 18.6 µL/min/mg | 23.3 min | > 1000 nM | – | Ki [8]: 14 nM
Cn1nc(CN2CCCC2)nc1-c1cccc(C(C)(C)C)c1 | – | – | – | – | – | 1000 nM | Ki [11]: 29 nM
Cn1nc(CN2CCCC2)nc1-c1ccc2ccsc2c1 | – | – | – | – | – | > 1000 nM | Ki [11]: 64 nM
CN(Cc1nc(-c2ccc(C(C)(C)C)cc2)n(C)n1)CC1CC1 | 61.3 min | 196 µL/min/mg | 11.3 µL/min/mg | 3.5 min | 324 nM | – | –
Cc1cc(OCCN2CCOCC2)nn1-c1ccc2ccccc2c1 | 64.6 min | 190 µL/min/mg | 10.7 µL/min/mg | 3.6 min | > 1000 nM | – | Ki [8]: 3 nM
Cn1nc(CN2CCCC2)nc1-c1cccc(Oc2ccccc2)c1 | – | – | – | – | – | > 1000 nM | Activity [7]: 21%
Cn1nc(CN2CCCC2)nc1-c1ccc(C(F)(F)F)cc1 | – | – | – | – | – | > 1000 nM | Ki [11]: 82 nM
Cn1nc(CN2CCCC2)nc1-c1ccc(C2CCCCC2)cc1 | – | – | – | – | – | – | Activity [12]: 89%; Ki [11]: 20 nM
CC(C)n1nc(CN2CCCC2)nc1-c1ccc(C(C)(C)C)cc1 | – | – | – | – | – | – | Ki [11]: 2.2 nM
Cn1nc(CN2CCCC2)nc1-c1cccc(-c2ccccc2)c1 | – | – | – | – | – | 1000 nM | Activity ([7]; filed as antagonist): 40%
Cn1nc(CN2CCCC2)nc1-c1ccc(Cl)cc1 | – | – | – | – | – | > 1000 nM | Activity [7]: 31%
